pIC50: −log10 of the molar value. Where two headings read alike, the source gives them in different places.
Target: T1, human recombinant COX2 (hCOX2) (UniProt P35354)
T1 sequence (P35354 1-604): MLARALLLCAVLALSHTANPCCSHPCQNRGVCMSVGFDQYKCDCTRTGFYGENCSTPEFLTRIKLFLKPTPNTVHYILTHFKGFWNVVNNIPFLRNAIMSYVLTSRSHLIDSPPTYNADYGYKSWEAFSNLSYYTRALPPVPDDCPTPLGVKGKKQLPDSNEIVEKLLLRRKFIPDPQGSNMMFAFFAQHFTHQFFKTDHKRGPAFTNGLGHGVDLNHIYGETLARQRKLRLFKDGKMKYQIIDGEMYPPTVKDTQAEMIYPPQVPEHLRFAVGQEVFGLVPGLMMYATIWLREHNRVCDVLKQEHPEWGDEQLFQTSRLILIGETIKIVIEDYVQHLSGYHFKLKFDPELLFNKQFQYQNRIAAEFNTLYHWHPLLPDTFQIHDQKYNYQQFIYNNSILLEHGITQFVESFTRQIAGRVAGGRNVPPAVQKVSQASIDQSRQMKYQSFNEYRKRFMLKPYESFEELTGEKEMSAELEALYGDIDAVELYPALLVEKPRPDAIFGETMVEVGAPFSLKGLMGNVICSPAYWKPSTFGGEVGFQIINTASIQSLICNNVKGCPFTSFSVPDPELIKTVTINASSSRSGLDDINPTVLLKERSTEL
Assay: LCMS-based COX2 enzymatic inhibition assay (PGE2 quantification)
Format: biochemical
Set-up: COX2 2 minutes pge2/pge2d4 area ratio Avg; other: 2 minutes; readout pge2/pge2d4 area ratio; average; COX2 2 minutes pge2/pge2d4 area ratio Avg; LLE; average LLE; COX2 2 minutes pge2 area (counts) Avg; readout pge2 area (counts); other: 2 min; "ovine COX2 (oCOX2), human recombinant COX2 (hCOX2)"
Conditions: for COX2 2 minutes pge2/pge2d4 area ratio Avg. LLE / COX2 2 minutes pge2 area (counts) Avg. LLE / COX2 10 minutes pge2 area (counts) Avg. LLE: average LLE; for pIC50: average
Procedure, shortened: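 PGE2 formed from arachidonic acid (final 5 μM, 2 min) was measured by LC-MS-MS against DMSO controls. Enzyme (oCOX-1 0.1 μg or hCOX2 0.2 μg) with hematin/epinephrine cofactors at pH 8.0 was given 10 min at 37 °C with compound first. Twelve-point curves run three times gave IC50.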

[1] = 2 minutes, readout pge2/pge2d4 area ratio
[2] = 2 minutes, readout pge2/pge2d4 area ratio, read-out: COX2 2 minutes pge2/pge2d4 area ratio Avg. IC50
[3] = 2 minutes, readout pge2 area (counts)
[4] = 2 minutes, readout pge2 area (counts), read-out: COX2 2 minutes pge2 area (counts) Avg. IC50
[5] = 10 minutes, readout pge2 area (counts)
[6] = 10 minutes, readout pge2 area (counts), read-out: COX2 10 minutes pge2 area (counts) Avg. IC50
[7] = read-out: COX2 2 minutes pge2/pge2d4 area ratio Avg. IC50 (microM), 2 minutes, readout pge2/pge2d4 area ratio

Structure (SMILES)	COX2 2 minutes pge2/pge2d4 area ratio Avg. LLE [1]	pIC50 [2]	COX2 2 minutes pge2 area (counts) Avg. LLE [3]	pIC50 [4]	COX2 10 minutes pge2 area (counts) Avg. LLE [5]	pIC50 [6]	pIC50 [7]
CS(=O)(=O)c1ccc(-c2cncc(N3CCCCC3)n2)cc1 [Compound 262]	3.643	5.34	3.693	5.39	3.59	5.29	–
CS(=O)(=O)c1ccc(-c2cncc(NC[C@H]3CCCO3)n2)cc1 [Compound 263]	4.417	5.34	4.469	5.39	–	–	–
CS(=O)(=O)c1ccc(-c2cccc(NCc3ccn[nH]3)n2)cc1 [Compound 264]	2.63	5.34	2.705	5.38	–	–	–
CS(=O)(=O)c1ccc(-c2nc(NCc3cccs3)ccc2S(C)(=O)=O)cc1 [Compound 265]	2.641	5.32	2.624	–	–	–	–
CS(=O)(=O)c1ccc(-c2cccc([S@@+]([O-])Cc3cccs3)n2)cc1 [Compound 266]	2.95	5.32	2.934	–	–	–	–
CS(=O)(=O)c1ccc(-c2ccnc(OCc3cccs3)c2)cc1 [Compound 267]	1.454	–	1.6998	5.53	–	–	5.28
CS(=O)(=O)c1ccc(-c2cc(S(C)(=O)=O)cc(NCc3cccs3)n2)cc1 [Compound 268]	2.624	–	2.624	–	–	–	5.28
COc1cc(S(C)(=O)=O)ccc1-c1cncc(NCc2ccoc2)n1 [Compound 272]	3.674	–	3.674	–	–	–	5.28
CS(=O)(=O)c1ccc(-c2cncc(OCC3CC3)n2)cc1 [Compound 273]	3.734	–	3.734	–	–	–	5.28
CS(=O)(=O)c1ccc(-c2cncc(OC[C@@H]3CCCO3)n2)cc1 [Compound 275]	4.054	–	4.054	–	–	–	5.28
Cc1coc(C(=O)Nc2cccc(-c3ccc(S(C)(=O)=O)cc3)n2)c1 [Compound 276]	2.554	–	2.659	5.39	–	–	5.28
CS(=O)(=O)c1ccc(-c2cc(NCc3ccco3)ncn2)cc1 [Compound 277]	–	5.28	–	–	–	–	–
CN(C)c1cncc(-c2ccc(S(C)(=O)=O)cc2)n1 [Compound 278]	4.524	–	4.672	5.43	4.674	5.43	5.28
CS(=O)(=O)c1ccc(-c2cncc(NCc3ncc[nH]3)n2)cc1 [Compound 279]	4.334	–	4.334	–	–	–	5.28
CCCCOc1cncc(-c2ccc(S(C)(=O)=O)cc2)n1 [Compound 280]	3.204	–	–	–	4.508	6.59	5.28
CS(=O)(=O)c1ccc(-c2cccc(C(=O)Nc3cccs3)n2)cc1 [Compound 281]	2.264	5.28	–	–	–	–	–
CSc1ccc(-c2cccc(NCc3ccco3)n2)cc1 [Compound 282]	1.004	–	1.004	–	–	–	5.28
CS(=O)(=O)c1ccc(-c2ccnc(NCc3ccco3)c2)cc1 [Compound 283]	–	–	–	–	–	–	5.28
CS(=O)(=O)c1ccc(-c2cccc([C@H](O)Cc3cccs3)n2)cc1 [Compound 284]	2.424	–	2.424	–	–	–	5.28

Structure (SMILES)	COX2 2 minutes pge2/pge2d4 area ratio Avg. LLE [1]	pIC50 [2]	COX2 2 minutes pge2 area (counts) Avg. LLE [3]	pIC50 [4]	COX2 10 minutes pge2 area (counts) Avg. LLE [5]	pIC50 [6]	pIC50 [7]
Cc1cccc(COc2cncc(-c3ccc(S(C)(=O)=O)cc3)n2)c1 [Compound 285]	2.514	–	2.514	–	–	–	5.28
CS(=O)(=O)c1ccc(-c2cncc(N3CCOCC3)n2)cc1 [Compound 286]	5.044	–	–	–	5.772	6.01	5.28
CN1CCN(c2cncc(-c3ccc(S(C)(=O)=O)cc3)n2)CC1 [Compound 287]	5.044	–	5.044	–	5.574	5.81	5.28
CS(=O)(=O)c1ccc(-c2cnc3cn(Cc4cccs4)nc3n2)cc1 [Compound 288]	2.844	–	2.844	–	–	–	5.28
CS(=O)(=O)c1ccc(-c2cncc(OCc3nccs3)c2)cc1 [Compound 289]	2.234	–	2.234	–	–	–	5.28
CS(=O)(=O)c1ccc(-c2ccnc(NCc3ccoc3)c2)cc1 [Compound 290]	–	–	–	–	–	–	5.28
COc1ncc(NCc2cocn2)nc1-c1ccc(S(C)(=O)=O)cc1 [Compound 291]	3.954	–	3.954	–	–	–	5.28
CS(=O)(=O)c1ccc(-c2cccc(C[C@@H](O)c3cccs3)n2)cc1 [Compound 292]	2.424	5.28	–	–	–	–	–
CC(C)COc1cncc(-c2ccc(S(C)(=O)=O)cc2)n1 [Compound 293]	3.394	–	3.394	–	3.394	–	5.28
CS(=O)(=O)c1ccc(-c2cncc(OCc3ccc(F)cc3)n2)cc1 [Compound 294]	–	–	2.694	–	–	–	5.28
CSc1ccc(-c2cccc(NCc3ccoc3)n2)cc1 [Compound 295]	–	–	–	–	–	–	5.28
CC(C)(C)OC(=O)N(c1ccoc1)c1cccc(-c2ccc(S(C)(=O)=O)cc2)n1 [Compound 296]	–	–	–	–	–	–	5.28
COc1cc(S(C)(=O)=O)ccc1-c1cccc(NCc2ccoc2)n1 [Compound 297]	–	–	–	–	–	–	5.28
CN1CCC(Nc2cncc(-c3ccc(S(C)(=O)=O)cc3)n2)CC1 [Compound 298]	–	–	–	–	–	–	5.28
COc1cncc(-c2ccc(S(C)(=O)=O)cc2)n1 [Compound 299]	–	–	–	–	5.551	6.31	5.28
CS(=O)(=O)c1ccc(-c2cccc(C[C@H](O)c3cccs3)n2)cc1 [Compound 300]	–	–	–	–	–	–	5.28
CS(=O)(=O)c1ccc(-c2cc3c(cn2)cnn3Cc2cccs2)cc1 [Compound 301]	–	–	–	–	–	–	5.28
CS(=O)(=O)c1ccc(-c2cccc(NC(=O)c3cccs3)n2)cc1 [Compound 302]	–	–	–	–	–	–	5.28
